Here are results for 1 molecule from patent US20040014671A1, “Preventives or remedies for heart failure” (priority 2000, published 2004).

Where a SMILES comes first, the peptide text is derived from it. [ ]: non-standard residue; d: D form. d2Nal = N[C@H](Cc1ccc2ccccc2c1)C(=O)O

For this test, the system named is papillary muscle of guinea-pig. The test can be described thus: Myocardial contractility (developed tension) in isolated papillary muscle of guinea-pig. As to conditions: applied cumulatively 10, 30 and 100 μM; n=5; FIG. 1. As for the experimental part: The direct effect of pralmorelin on myocardial contractility was evaluated using the isolated cardiac muscle of guinea-pigs according to the standard method for evaluating myocardial contractility.
Male Hartley guinea-pigs (body weight, 301-350 g; Japan SLC) were purchased. The animals were accommodated to an environment at a temperature of 23±2° C. and a humidity of 55±15% under 12-hr light/dark cycles while they were allowed to eat and drink water ad libitum until they weighed 360-480 g. Each test substance was tested on a group of five animals.
The test substances were pralmorelin dihydrochloride (KP-102), representatives of growth hormone secretagogues such as hexarelin, ghrelin and ibutamorelin methanesulfonate (the last being hereunder referred to as MK-0677) (which were prepared by the method described in JP 6-263737 A (kokai)), as well as a recombinant human growth hormone (Sumitomo Pharmaceutical) and amrinone (Sigma) which is a known therapeutic of acute heart failure. KP-102, hexarelin and MK-0677 were dissolved in distilled water. Ghrelin was dissolved in physiological saline. Amrinone was first dissolved in dimethyl sulfoxide and then diluted with physiological saline. The growth hormone was dissolved in a dedicated solubilizer (0.3 w/v % metacresol and 3.9 w/v % D-mannitol). None of the test substance solutions should be added in an amount exceeding 1 w/v %. All reagents other than the test substances were guaranteed products of Nacalai Tesque.
The guinea-pigs were stunned with a blow to the back of their head; thereafter, the carotid artery was incised and the animals were exsanguinated to death. The chest was opened, the blood vessels in the upper part of the heart were cut and the heart was removed. The heart was immediately transferred into a Krebs-Henseleit (K-H) nutrient solution (NaCl, 118.0 mM; KCl, 4.7 mM; CaCl2. 2H2O, 1.0 mM; KH2PO4, 1.2 mM; MgSO4.7H2O, 1.2 mM; NaHCO3, 25.0 mM; glucose, 11.0 mM) that had been fully aerated with 95% O2-5% CO2. The heart was fixed on a rubber-lined Petri dish with needles such that its front face was seen. The ventricular wall of the upper right ventricle (toward the atrium) was excised transversely along the atrium, then excised longitudinally along the interventricular septum so that the ventricular wall was opened to expose the right ventricular papillary muscle. Subsequently, the entire surface of the left ventricle was cut open from the aorta (down) to the apex and the anterior wall of the left ventricle was opened wide, to both right and left, and fixed to expose the papillary muscle of the left ventricle. The tricupsid or mitral valve was cut off from the ventricle and the papillary muscle was cut off at the base to prepare a specimen of papillary muscle. The base of the specimen was fixed to field stimulating electrodes in an organ bath filled with 15 mL of the nutrient solution. The tendinous cord adhering to the valve was tied up with a thread and connected to an FD pickup (TB-612T, Nihon Kohden). A resting tension of 0.5 g was loaded and the papillary muscle was driven with an electric stimulator (SEN-3201, Nihon Kohden) at a frequency of 1 Hz by pulses of 20-ms duration and at a voltage intensity about 1.2 times the threshold. After an equilibration period of about 1 hr, KP-102, hexarelin and amrinone were each applied cumulatively up to amounts of 10, 30 and 100 μM. After examination of the changes in inotropic action due to the application of the test substances, 12.5 mM of CaCl2 was added and the maximum tension that was developed by each specimen was obtained. The developed tension was recorded with a multi-purpose preamplifier (RMP-6008, Nihon Kohden) and a recorder (WT-647G, Nihon Kohden).
Each result was expressed by mean ± standard error. […]

Take `C[C@H](NC(=O)[C@@H](Cc1ccc2ccccc2c1)NC(=O)[C@@H](C)N)C(=O)N[C@@H](Cc1c[nH]c2ccccc12)C(=O)N[C@H](Cc1ccccc1)C(=O)N[C@@H](CCCCN)C(N)=O` [KP-102, D-alanyl-3-(naphthalen-2-yl)-D-alanyl-L-alanyl-L-tryptophyl-D-phenylalanyl-L-lysinamide] (H-[dA][d2Nal]AW[dF]K-NH2): the “tension development (positive inotropic action) vs baseline” value is “significant effect over the baseline value”.
